Measurements from patent publication US20250236589A1, “THERAPEUTIC PHENETHYLAMINE COMPOSITIONS AND METHODS OF USE” (Cybin IRL Limited, priority 2022, published 2025).
Where two headings read alike, the source gives them in different places. Marks after values point to notes of the source that are not given here.

Columns and labels:
[1] = test system: 5-HT7 (h) (subtype “a” or “b” not specified); experiment: Off-target screen, radioligand displacement at 10 μM; format: binding, human; conditions: agonist radioligand
[2] = test system: Calcium Channel L-Type, Phenylalkylamine, verapamil site (rat cortex); experiment: as above; format: binding; conditions: antagonist radioligand
[3] = molecular target: T1, 5-HT1A receptors (Homo sapiens (Human), UniProt P08908); experiment: 5-HT1A radioligand binding ([3H]8-OH-DPAT)
Description: In another series of 5-HT1A,2A,2B radioligand competition binding assays, the conditions were as follows: For 5-HT1A assays, cell membrane homogenates (˜30 μg protein) derived from HEK-293 cells expressing human 5-HT1ARs were incubated with 0.5 nM [^3H]8-hydroxy-2-(di-n-propylamino)tetralin ([^3H]8-OH-DPAT) for 60 min at room temperature in the presence or absence of the test article. Non-specific binding was determined in the presence of 10 μM 8-OH-DPAT. Samples were then analyzed as described above, with only immaterial differences. […] Samples were then analyzed as described above.

[4] = molecular target: human alpha2C receptor (Homo sapiens (Human), UniProt P18825); experiment: alpha2C receptor binding ([3H]rauwolscine)
Description: At 10 μM, I-1 inhibited 97% of radioligand bound to rat alpha2 receptors.

[5] = molecular target: MAO-A (Homo sapiens (Human), UniProt P21397); experiment: Recombinant human MAO-A activity (stability); format: in vitro ADME; conditions: hrMAO 0.02 mg/mL, read-out: MAO-A, t1/2
Description: hrMAO-A and MAO control were purchased from XenoTech. The reaction mixture was prepared as described below. The test compound was added into the reaction mixture at a final concentration of 1 μM or co-dosed with their deuterated analog at 1 μM each. The positive control kynuramine (25 μM) was run simultaneously with the test compound in a separate reaction. The reaction mixture (without test compounds or kynuramine) was equilibrated in a shaking water bath at 37° C. for 5 minutes. The reaction was initiated by the addition of the test compound or kynuramine, and the mixture was incubated in a shaking water bath at 37° C. Aliquots (150 μL) of the test compound reaction mixture were withdrawn at 0, 5, 10, 20, 30, 60, and 120 minutes. Aliquots (150 μL) of the positive control reaction mixture were withdrawn at 0 and 30 minutes. Test compound(s) and kynuramine samples were immediately combined with 150 μL of ice-cold 100% acetonitrile containing 0.1% formic acid and internal standard (0.2 μM metoprolol) to terminate the reaction. The samples were then mixed and centrifuged to precipitate proteins. All samples were assayed by LC-MS/MS. The peak area response ratio (PARR) of analyte to internal standard at each time point was compared to the PARR at time 0 to determine the percent remaining at each time point. Half-lives were calculated using GraphPad software, fitting to a single-phase exponential decay equation.

[6] = Plasma and brain concentrations after dosing in mice (screening); format: in vivo, mouse; conditions: for concentration at 160 min: sc, mice, 3 mg/kg s.c.
[7] = test system: mice; experiment: Head-twitch response (HTR) screening in mice; format: in vivo, mouse
Description: Protocols were followed according to Canal C E, Morgan D. Head-twitch response in rodents induced by the hallucinogen 2,5-dimethoxy-4-iodoamphetamine: a comprehensive history, a re-evaluation of mechanisms, and its utility as a model. […] Mice were housed in standard laboratory cages with ad libitum access to food and water and were acclimated to the vivarium for at least one week prior to testing in a procedure room. In a typical experiment, mice were injected 3 mg/kg of test article subcutaneously. Mice were placed immediately thereafter in a clear, polycarbonate box (46×20×20 cm), and HTRs were counted at various time points after administration using hand-held tally counters. In a separate experiment, plasma and brain samples were collected at 15 and 160 minutes after administration of test compounds to measure plasma and brain concentrations. Quantification was performed using LC-MS/MS method (LLOQ, 9 nM).

[8] = PK profile in C57BL/6J mice (plasma, brain); format: in vivo, mouse; conditions: for Kp / half-life / AUC(0-t) / Cmax / MRT last / Tmax / AUC(0-inf): male, C57BL/6J, mouse; for Kp: brain/plasma, read-out: Brain/Plasma ratio (AUCINF); for AUC(0-inf): read-out: AUCINF—obs
Description: PK Profile in Mice. To evaluate the full PK profile for I-1 in mice, plasma and brain samples were determined in male C57BL/6J mice following subcutaneous (s.c.) and oral (p.o.) administration at 3 mg/kg (see Table 7 and FIGS. 54A and 54B). In a typical experiment, blood was collected via cardiac puncture (N=3 animals per time point, 9 time points) up to 24 hours post dose. Plasma and brain concentrations were determined using LC-MS/MS and PK parameters were determined using a non-compartmental analysis (NCA) using Phoenix WinNonlin Pro (v8.3.1, Pharsight, Inc, USA) software.

[9] = molecular target: 5-HT2A receptor (Homo sapiens (Human), UniProt P28223); experiment: 5-HT2A radioligand binding ([125I](±)DOI)
[10] = molecular target: human alpha2A receptor (Homo sapiens (Human), UniProt P08913); experiment: alpha2A receptor function; format: cell-based
[11] = molecular target: T1, 5-HT1A receptors; experiment: 5-HT1A receptor function; format: cell-based
Description: I-1 was also a potent 5-HT2 agonist, but at 10 μM, it inhibited >80% radioligand binding to nine other targets (see Table 6). […] I-1 inhibited <90% of radioligand binding to the other seven off-targets.

Sequence of MAO-A (P21397 whole entry, looked up): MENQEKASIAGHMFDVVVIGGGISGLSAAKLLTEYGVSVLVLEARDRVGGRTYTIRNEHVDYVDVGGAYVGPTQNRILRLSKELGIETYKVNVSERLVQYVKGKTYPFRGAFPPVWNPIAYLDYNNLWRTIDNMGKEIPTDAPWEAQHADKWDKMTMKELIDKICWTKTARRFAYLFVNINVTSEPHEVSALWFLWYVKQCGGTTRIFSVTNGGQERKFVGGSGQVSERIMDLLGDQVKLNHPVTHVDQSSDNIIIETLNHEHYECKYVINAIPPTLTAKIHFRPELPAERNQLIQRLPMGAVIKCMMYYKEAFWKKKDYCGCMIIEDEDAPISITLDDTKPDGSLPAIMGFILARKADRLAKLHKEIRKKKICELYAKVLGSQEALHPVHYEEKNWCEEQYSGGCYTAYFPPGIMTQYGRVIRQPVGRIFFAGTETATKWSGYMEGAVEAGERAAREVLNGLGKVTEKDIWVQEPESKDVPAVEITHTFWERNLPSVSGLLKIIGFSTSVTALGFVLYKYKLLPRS
Sequence of human alpha2A receptor (P08913 whole entry): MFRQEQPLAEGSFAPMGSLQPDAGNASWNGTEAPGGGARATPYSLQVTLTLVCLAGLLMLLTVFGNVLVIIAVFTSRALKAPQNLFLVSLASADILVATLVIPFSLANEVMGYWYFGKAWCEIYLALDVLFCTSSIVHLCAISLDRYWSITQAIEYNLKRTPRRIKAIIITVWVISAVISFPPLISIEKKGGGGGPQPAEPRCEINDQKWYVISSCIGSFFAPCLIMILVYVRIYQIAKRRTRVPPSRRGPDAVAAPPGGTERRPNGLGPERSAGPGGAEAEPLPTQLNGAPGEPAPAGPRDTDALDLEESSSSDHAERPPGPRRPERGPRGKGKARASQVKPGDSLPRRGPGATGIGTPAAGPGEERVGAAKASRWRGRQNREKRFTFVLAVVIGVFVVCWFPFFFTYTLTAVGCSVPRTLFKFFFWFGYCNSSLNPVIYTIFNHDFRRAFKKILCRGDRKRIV
Sequence of human alpha2C receptor (P18825 whole entry): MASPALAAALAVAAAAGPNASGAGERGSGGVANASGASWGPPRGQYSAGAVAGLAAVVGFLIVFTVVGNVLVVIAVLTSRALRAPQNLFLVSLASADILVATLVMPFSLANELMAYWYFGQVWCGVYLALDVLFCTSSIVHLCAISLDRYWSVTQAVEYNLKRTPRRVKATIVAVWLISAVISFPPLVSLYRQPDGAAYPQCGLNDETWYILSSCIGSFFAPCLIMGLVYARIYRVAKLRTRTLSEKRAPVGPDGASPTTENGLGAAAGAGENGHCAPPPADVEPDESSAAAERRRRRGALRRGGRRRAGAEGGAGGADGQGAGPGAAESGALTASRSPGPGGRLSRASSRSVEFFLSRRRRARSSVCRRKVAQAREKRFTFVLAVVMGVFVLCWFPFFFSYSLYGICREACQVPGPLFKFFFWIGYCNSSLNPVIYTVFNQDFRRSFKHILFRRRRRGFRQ

With `COc1cc(CC(C)N)c(OC)cc1I` (racemic) [DOI, (±)-2,5-dimethoxy-4-iodoamphetamine, reference compound] the “inhibition at 10 µM” value [1] was 58.4% inhibition at 10 μM and the “inhibition at 10 µM” value [2] was 55.5% inhibition at 10 μM.
`COc1cc(SC(F)(F)F)c(OC)cc1CCN` [Compound I-1, 2-(2,5-dimethoxy-4-((trifluoromethyl)thio)phenyl)ethan-1-amine] gave an inhibition at 0.1 µM ([3]; 100 nM) of 55%, an inhibition at 1 µM ([3]; 1 uM) of 90% and a Ki [4] of 108 nM. The half-life at 1 μM [5] was > 2 h, the “brain/plasma ratio, 160 min” value ([6]; 160 min after 3 mg/kg) was 32.4 and the concentration at 160 min ([6]; mouse, brain, read-out: Brain, 160 min) was 9.6 µM. The Kp at 160 min ([6]; mouse, brain/plasma, subcutaneous, 3 mg/kg, 160 min after 3 mg/kg, read-out: brain/plasma ratio, 160 min) was 24 to 32, the concentration at 160 min ([6]; mouse, plasma, read-out: Plasma, 160 min) was 0.3 µM and the “HTR 15-25 min” value ([7]; calculated using 0-5 min) was 27.4 #. The “HTR 160-170 min” value ([7]; calculated using 3 min time bin) was 30.4 ###, the AUCINF ([8]; brain, p.o. 3 mg/kg) was 16171 ng·h/g and the T1/2 ([8]; brain, p.o. 3 mg/kg) was 2.73 h. It also gave a peak brain concentration ([8]; brain, p.o. 3 mg/kg) of 2366 ng/g, an AUCINF ([8]; brain, s.c. 3 mg/kg) of 22487 ng·h/g and a T1/2 ([8]; brain, s.c. 3 mg/kg) of 3.15 h. It also gave a peak brain concentration ([8]; brain, s.c. 3 mg/kg) of 3165 ng/g, a Kp ([8]; po, p.o. 3 mg/kg) of 25.8 and a Kp ([8]; sc, s.c. 3 mg/kg) of 30.7. It also gave a half-life ([8]; plasma and brain, other: subcutaneous and oral (range over both routes), 3 mg/kg, across route of administration and tissue, read-out: elimination T1/2) of 2.73 to 3.92 h, an AUC(0-t) ([8]; po, brain, p.o. 3 mg/kg) of 16100 ng·h/mL and a Cmax ([8]; po, brain, p.o. 3 mg/kg) of 2370 ng/mL. It also gave an MRT last ([8]; po, brain, p.o. 3 mg/kg) of 5.35 h, a Tmax ([8]; po, brain, p.o. 3 mg/kg) of 1 h and an AUC(0-inf) ([8]; po, brain, p.o. 3 mg/kg) of 16200 ng·h/mL. It also gave a half-life ([8]; po, brain, p.o. 3 mg/kg, read-out: T1/2 (converted)) of 2.73 h, an AUC(0-t) ([8]; po, plasma, p.o. 3 mg/kg) of 625 ng·h/mL and a Cmax ([8]; po, plasma, p.o. 3 mg/kg) of 175 ng/mL. For the same compound, the MRT last ([8]; po, plasma, p.o. 3 mg/kg) was 3.01 h, the Tmax ([8]; po, plasma, p.o. 3 mg/kg) was 1 h and the AUC(0-inf) ([8]; po, plasma, p.o. 3 mg/kg) was 784 ng·h/mL. The half-life ([8]; po, plasma, p.o. 3 mg/kg, read-out: T1/2 (converted)) was 3.3 h, the AUC(0-t) ([8]; sc, brain, s.c. 3 mg/kg) was 22500 ng·h/mL and the Cmax ([8]; sc, brain, s.c. 3 mg/kg) was 3160 ng/mL. The MRT last ([8]; sc, brain, s.c. 3 mg/kg) was 4.89 h, the Tmax ([8]; sc, brain, s.c. 3 mg/kg) was 2 h and the AUC(0-inf) ([8]; sc, brain, s.c. 3 mg/kg) was 22500 ng·h/mL. It also gave a half-life ([8]; sc, brain, s.c. 3 mg/kg, read-out: T1/2 (converted)) of 3.15 h, an AUC(0-t) ([8]; sc, plasma, s.c. 3 mg/kg) of 731 ng·h/mL and a Cmax ([8]; sc, plasma, s.c. 3 mg/kg) of 188 ng/mL. The MRT last ([8]; sc, plasma, s.c. 3 mg/kg) was 2.96 h, the Tmax ([8]; sc, plasma, s.c. 3 mg/kg) was 0.08 h and the AUC(0-inf) ([8]; sc, plasma, s.c. 3 mg/kg) was 1000 ng·h/mL. The half-life ([8]; sc, plasma, s.c. 3 mg/kg, read-out: T1/2 (converted)) was 3.92 h, the “% Frelative po (AUCINF)” value ([8]; plasma, oral relative to subcutaneous) was 78.3% and the T1/2 ([8]; plasma, s.c. 3 mg/kg) was 3.92 h. The inhibition at 10 µM [9] was > 80%, the “binding selectivity for 5-HT2A over 5-HT2B” value ([9]; Ki, [125I]DOI) was ~19 fold and the Ki ([9]; radioligand [125I](±)DOI) was 0.35 nM. For the same compound, the EC50 [10] was 165 nM and the EC50 [11] was 88 nM.
